{"source": "patent US12403139B2", "about": "“Methods and compositions for prevention and treatment of cardiac hypertrophy” (University of Hawaii, priority 2010, dated 2025)", "key": {"[1]": {"test_system": "WT mice exposed to TAC", "experiment": "Pressure overload cardiac hypertrophy by transverse aortic constriction (TAC): heart weight and echocardiography", "format": "in vivo", "procedure": "Transverse Aortic Constriction (TAC). Transverse aortic constriction was performed as described by Rockman, producing left ventricular hypertrophy by constriction of the aorta (Rockman et al., 1994; Rockman et al., 1991). The left side of the chest was depilated with Nair and a baseline 2-D echocardiogram was obtained. Mice were then deeply anesthetized with a mixture of ketamine and xylazine. The transverse aorta between the brachiocephalic and left carotid artery was banded using 6-0 silk ligature around the vessel and a 26 G blunt needle, after which the needle was withdrawn. Sham surgeries were identical apart from the constriction of the aorta.\nTransthoracic echocardiography. Baseline and post TAC transthoracic echocardiography were used to assess changes in mouse heart dimensions and function. Briefly, after two days of acclimatization and depilation, unanesthetized transthoracic echocardiography was performed using a 30-Mhz transducer (Vevo 770, VisualSonics). High quality two-dimensional images and M-mode images of the left ventricle were recorded. Measurements of left ventricular end-diastolic (LVIDd) and end-systolic (LVIDs) internal dimensions were performed by the leading edge to leading edge convention adopted by the American Society of Echocardiography. The left ventricular ejection fraction (% EF) was calculated as (LV Vol; d-LV Vol; s/LV Vol; d×100) (Visualsonics Inc.).\nOsmotic pump installation. Long term (up to 42 day) infusion of drugs can be accomplished by insertion of osmotic pumps without the need for repeated injection. Mice are placed under a low plane of anesthesia with an injection of Ketamine/Xylazine anesthetic (50 mg/10 mg·Kg) intraperitoneally (IP) 10 minutes prior to surgery. A small area between shoulder blades is shaved and sterilized with Povidine swab. A small incision is made in this area and blunt dissected below skin to allow placement of an Alzet osmotic pump (model 2006), previously loaded with the drug of choice under the skin between the shoulder blades where it is inaccessible to the mouse. Several stitches are applied to close the incision. The mouse is placed in regular housing on a warming mat until completely conscious, after which mice are then returned to regular housing room.\nThe mice were subjected to pressure overload induced cardiac hypertrophy by TAC while administered 4 mg/kg of BCTC (in 20% wt/vol 2-Hydroxypropyl)-β-cyclodextrin/PBS) throughout the entire experiment using osmotic pumps (Alzet, Model 2006) pumping continuously at a rate of 0.15 ul/hr. The test was limited to ˜42 days (max) by the function of the pumps, as such the experiment was halted at 36 days post TAC, as pumps are installed previous to the TAC to allow recovery before the TAC surgery. […] This protection from dilation of the left ventricle translates to a protection in the function of the heart as measured by ejection fraction (% EF, p<0.05) and fractional shortening (% FS)."}, "[2]": {"test_system": "WT mice exposed to TAC", "experiment": "Histological analysis of the heart 36 days post TAC (WGA-Alexa488 and picrosirius red staining)", "format": "in vivo", "details": "BCTC treated TAC mice vs vehicle treated TAC mice", "procedure": "Tissue preparation for histology. […] For histology, hearts were perfused with phosphate-buffered saline and 10% formalin in situ, collected immediately, and fixed overnight in 10% formalin at 4° C. Tissues were then cut in a sagittal orientation, embedded in paraffin, mounted on glass slides, and stored until use. Paraffin-embedded sections were stained for the following:\nCollagen: Collagen volume fraction was determined by analysis of picrosirius stained sections. Sections cut to 5 μm thickness were deparaffinized, stained with Weigert's hematoxylin, then stained with picrosirius red (0.1% Sirius Red in picric acid). Sections were subsequently washed and dehydrated before image analysis.\nCardiomyocyte cross sectional area: Heart sections were deparaffinized and permeabilized, then stained with wheat germ-agglutinin conjugated to Alexa488 (WGA-Alexa488, Invitrogen, W11261) at a concentration of 50 μg/mL to identify sarcolemmal membranes and measure cardiomyocyte cross sectional area (described below).\nImage collection and analysis. […] Fibrosis and cross-sectional cardiomyocyte area were quantified using ImageJ software (NIH). To quantify fibrosis, collagen fibers were highlighted, and the red-stained pixels were counted to determine the percentage of pixels in each field that represented collagen fibers. […]"}}, "data": [{"smiles": "CC(C)(C)c1ccc(NC(=O)N2CCN(c3ncccc3Cl)CC2)cc1", "note": "[BCTC, N-(4-tertiarybutylphenyl)-4-(3-chloropyridin-2-yl)tetrahydropyrazine-1(2H)-carboxamide]", "values": [{"measurement": "fractional shortening (% FS)", "setting": "[1]; TAC mice, 4 mg/kg BCTC by osmotic pump, 36 days post TAC, vs vehicle, p<0.01 (FIG. 8E)", "value": "significantly diminished at 36 days post TAC compared to drug-treated mice"}, {"measurement": "ejection fraction (% EF)", "setting": "[1]; TAC mice, 4 mg/kg BCTC by osmotic pump, 36 days post TAC, vs vehicle, p<0.05 (FIG. 8D)", "value": "significantly diminished at 36 days post TAC compared to drug-treated mice"}, {"measurement": "heart weight/body weight ratio", "setting": "[1]; TAC mice, 4 mg/kg BCTC by osmotic pump, 36 days post TAC, vs vehicle, p=0.035 (FIG. 8A)", "value": "significantly greater in vehicle treated WT mice than drug treated mice"}, {"measurement": "left ventricular internal diameter end-diastolic (LVIDd), TAC mice", "setting": "[1]; TAC mice, 4 mg/kg BCTC by osmotic pump, zero to 36 days, vs vehicle, significantly different after 18 days, p<0.001 (FIG. 8C)", "value": "significantly smaller LVIDd than the vehicle treated TAC mice"}, {"measurement": "LVIDd over time in TAC mice", "setting": "[1]; TAC mice, 4 mg/kg BCTC by osmotic pump, vehicle mice start increasing diameter at 9 days", "value": "the diameter is maintained for the duration of the test"}, {"measurement": "left ventricular internal diameter (LVID,d), sham mice", "setting": "[1]; sham mice, BCTC vs vehicle, echocardiography every 9 days (FIG. 8B)", "value": "no difference"}, {"measurement": "cardiomyocyte cross sectional area", "setting": "[2]; p=<0.01, n=100 (FIG. 9A)", "value": "significantly smaller myocytes in BCTC treated TAC mice than vehicle treated TAC control mice"}, {"measurement": "interstitial collagen (area of collagen staining as a percentage of tissue area)", "setting": "[2]; picrosirius red, p=0.05 (FIG. 9B)", "value": "significantly less interstitial collagen in BCTC treated TAC mice than vehicle treated TAC control mice"}]}]}
